Test results taken from patent US10696647B2, “Pharmacological treatment of obsessive-compulsive disorder” (BIOCODEX, priority 2013, dated 2020).
“And” between values parts separate entries of the source, which are not always exact repeats. Equal values may be shown once.

Key:
Assay type in all cases: in vivo, NMRI mice
rotarod performance time = test: Rotarod test (motor performance and coordination); details: doses up to 200 mg/kg i.p.; 16 rpm, up to 120 s
Experimental: (§1) Six-week old NMRI mice (30-32 g) were purchased from Janvier breeding (Le Genest-St Isle; France). Mice were housed ten per translucent polypropylene cage (internal dimensions; 37.5 cm×37.5 cm×[…], L×W×H) under standard laboratory conditions (22±2° C., 12-h light/dark cycle, lights on at 7:00 AM) with food (AO4, SAFE, France) and tap water available ad libitum. No less than one week of rest followed their arrival. All animal procedures were carried out in accordance with the European Community council directive of 24 of Nov. 1986 (86/609/EEC) for the care and use of laboratory animals and the French government guidelines (authorization C60-159-04—December, 2009).
Mice were habituated to the testing room at least 60 min before any behavioural evaluation. […]
The rotarod test was performed in accordance with the teachings of Kohara et al. (2005) J Pharmacol Exp Ther 2005; 315: 163-169. […] In the drug evaluation session, rotarod performance time was measured three times, up to 120 s, and the mean was adopted as the performance time for each animal. […]
(§2) All data are expressed as mean±SEM. The number of marble buried, locomotor activity and the time spent on the rot rod were analyzed by one-way analyse of variance (ANOVA) or the Kruskall Wallis procedure followed post-hoc by the Dunnett's test or Dunn's method respectively to locate the differences between the treated groups and the vehicle group. […]

spontaneous locomotion = test: Spontaneous locomotor activity (distance travelled, rearings); details: up to 200 mg/kg i.p.; measured for 30 min
Experimental: as §1, with “2009). […]” for “2009).”
Testing occurred in a quiet room under a light level of approximately 400 lux. […] Locomotor activity and rearing were measured by vibrations analysis and the interruption of infra-red beams respectively (ActiV-Meter; Software BIO-ACTIV; Bioseb-Vitrolles-France). The distance travelled (in cm) and the number of rearings were measured for 30 min. […]
as §2

[1] = tested on: marble-burying behavior in mice; test: Marble-burying behavior in mice (model of obsessive-compulsive disorder); details: for number of marbles buried (at least 2/3 buried, counted after 30 min): vs vehicle; for dose at which the decrease in number of marbles buried reached significance: p<0.05 vs vehicle
Text: Marble-burying behavior in the rodent is considered to be a model of obsessive-compulsive disorder (OCD) and is commonly used to assess the activity of candidate compounds in the prevention or treatment of OCD (Ishimaru et al. (1995) Jpn. J. Pharmacol. 68:65-70; Gaikwad & Parle (2010) Asian Journal of Pharmaceutical and Clinical Research 3:101-103; Prajapati et al. (2011) Pharmacognosy Res. 3:62-66). […] In addition, because the motor behavior can interfere with the burying behavior, the effects of stripentol in the rota rod test and spontaneous locomotion have been also evaluated.
as §1
Mice were habituated to the testing room at least 60 min before any behavioural evaluation. All tests took place between 9:00 AM and 3:00 PM unless otherwise stated. The behavioural tests were performed by different well-trained experimenters who were kept unaware of the treatment administered. All experiments were performed in a randomized manner.
The marble-burying behavior of mice was conducted according to the methodology of Njung'e and Handley (1991) Pharmacol Biochem Behav 1991; 38: 63-67. Briefly, each mouse was placed individually in a polycarbonate cage (Type S-River; 26.5×16×14 cm height) containing 20 clean glass marbles of diameter 1.5 cm evenly spaced on 5 cm deep sawdust. The cage-lid was a metal grid. No food or water was present. The marbles were cleaned with an alcohol solution (10%; v/v) between each animal. The number of marbles at least ⅔ buried was counted 30 min later.
These compounds were administered under a volume of 0.1 ml/10 g of body weight. Control animals received an equivalent volume of vehicle.
All data are expressed as mean±SEM. The number of marble buried, locomotor activity and the time spent on the rot rod were analyzed by one-way analyse of variance (ANOVA) or the Kruskall Wallis procedure followed post-hoc by the Dunnett's test or Dunn's method respectively to locate the differences between the treated groups and the vehicle group. Differences were considered statistically significant when p<0.05. Statistical tests were run using SigmaStat v3.5 (SPSS, inc, Chicago, Ill., USA).

SMILES: CC(C)(C)C(O)/C=C/c1ccc2c(c1)OCO2 (racemic) [stiripentol]
- time spent on the rota rod (rotarod performance time): without any significant effect
- distance travelled (spontaneous locomotion): did not significantly modify the distance travelled
- number of rearings (spontaneous locomotion): did not significantly impair the number of rearings
- number of marbles buried (at least 2/3 buried, counted after 30 min) ([1]; stiripentol 100-200 mg/kg i.p. 60 min before testing, F(3.42)=5.425, p=0.003): dose-dependently decreased the number of marbles buried
- dose at which the decrease in number of marbles buried reached significance ([1]; stiripentol i.p. 60 min before testing): 200 mg/kg

SMILES: CN(C)CCCN1c2ccccc2CCc2ccc(Cl)cc21 [clomipramine]
- number of marbles buried (at least 2/3 buried, counted after 30 min) ([1]; clomipramine 5-20 mg/kg i.p. 30 min before testing, H(3)=20.412, p<0.001): significantly reduced the number of marbles buried
- dose at which the decrease in number of marbles buried reached significance ([1]; clomipramine i.p. 30 min before testing): 10 mg/kg and 20 mg/kg
